# Experiments:
# [1] = biological target: T1, gastrin receptors or type-B cholecystokinin (CCK-B) receptors (Oryctolagus cuniculus, UniProt P46627); test: Inhibition of the gastrin-induced increase of cytosolic calcium in rabbit gastric mucous-membrane cells (Fura 2); assay type: cell-based; settings: for Ratio IC50 Binding cortex / IC50 (gastric mucous cells): binding values taken from Table 3; for CCK-B-antagonistic activity IC50 (II): data taken from Table 4 (rabbit gastric mucous cells), reprinted in Table 6; for IC50, inhibition of the increase of cytosolic calcium: rabbit gastric mucous cells enriched in parietal cells, gastrin 5×10^-8
# T1 construct: Rabbit gastric mucous-membrane cells were prepared by conventional techniques; endogenous in cells; host or cells: freshly isolated rabbit gastric mucosal cells, enriched by elutriation to about 70% parietal cells
# T1 sequence (P46627 1-452): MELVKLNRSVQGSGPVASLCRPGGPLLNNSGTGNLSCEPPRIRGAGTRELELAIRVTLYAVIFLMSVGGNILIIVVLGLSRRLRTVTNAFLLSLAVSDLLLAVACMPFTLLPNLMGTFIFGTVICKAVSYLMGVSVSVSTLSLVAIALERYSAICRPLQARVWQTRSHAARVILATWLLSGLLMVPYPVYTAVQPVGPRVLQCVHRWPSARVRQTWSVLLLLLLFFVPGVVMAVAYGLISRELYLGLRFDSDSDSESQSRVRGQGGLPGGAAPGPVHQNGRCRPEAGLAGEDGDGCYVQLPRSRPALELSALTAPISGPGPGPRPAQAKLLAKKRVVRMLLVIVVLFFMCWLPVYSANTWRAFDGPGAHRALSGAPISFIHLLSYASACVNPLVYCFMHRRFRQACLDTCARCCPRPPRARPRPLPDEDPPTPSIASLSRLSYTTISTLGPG
# In short: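 Enzymatically dispersed (collagenase/pronase) rabbit gastric mucosal cells, loaded with Fura 2, were suspended at 0.8×10^6/ml in HEPES-buffered saline at 37 °C with stirring. Gastrin-induced cytosolic Ca²⁺ rise was measured with and without compound by fluorescence (excitation 340/380 nm, emission 505 nm).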
# [2] = biological target: T2, CCK-A (Cavia porcellus, UniProt Q63931); test: Anti-CCK-A activity on guinea-pig gall bladder stimulated in vitro by CCK-8; settings: for Ratio I/II (CCK-A IC50 / CCK-B IC50): gall bladder IC50 over gastric mucous cells IC50; for IC50: guinea-pig gall bladder in vitro, CCK-8 10 ng/ml, read-out: CCK-A-antagonistic activity IC50 (I)
# T2 construct: A longitudinal strip of guinea-pig gall-bladder was put in a bath for isolated organs; from tissue; host or cells: guinea-pig gall bladder longitudinal strip
# T2 sequence (Q63931 1-430): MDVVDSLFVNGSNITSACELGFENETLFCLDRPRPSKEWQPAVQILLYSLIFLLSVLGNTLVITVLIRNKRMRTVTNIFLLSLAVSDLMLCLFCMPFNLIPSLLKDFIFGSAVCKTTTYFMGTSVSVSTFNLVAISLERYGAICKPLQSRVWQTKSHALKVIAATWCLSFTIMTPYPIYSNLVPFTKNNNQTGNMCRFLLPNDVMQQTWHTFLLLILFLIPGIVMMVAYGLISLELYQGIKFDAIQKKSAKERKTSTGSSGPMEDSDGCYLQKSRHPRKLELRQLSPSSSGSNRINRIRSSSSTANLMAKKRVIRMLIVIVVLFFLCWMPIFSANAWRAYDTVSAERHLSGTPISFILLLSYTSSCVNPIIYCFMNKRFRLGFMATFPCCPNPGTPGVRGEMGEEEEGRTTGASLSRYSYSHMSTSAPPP
# Method: The experimental model used was guinea-pig gall bladder stimulated in vitro by CCK-8, with the use of lorglumide as the reference standard. A longitudinal strip of guinea-pig gall-bladder was put in a bath for isolated organs in the presence of Krebs buffer at a temperature of 32° C., with continuous oxygenation with an oxygen-CO2 mixture (95-[…]). The isometric contractions were detected by means of a force transducer and recorded.
Structure (SMILES),Ratio IC50 Binding cortex / IC50 (gastric mucous cells) [1],CCK-B-antagonistic activity IC50 (II) [1] [µM],"IC50, inhibition of the increase of cytosolic calcium [1] [µM]",Ratio I/II (CCK-A IC50 / CCK-B IC50) [2],IC50 [2] [µM],"IC50 order of magnitude, peripheral antigastrin activity ([1]; rabbit gastric mucous cells)"
"O=C(CC[C@@H](NC(=O)c1cc(Cl)cc(Cl)c1)C(=O)N1CCC2(CCCC2)CC1)N[C@H](Cc1ccccc1)C(=O)O [Compound 9, (R,R)-1[(1-carboxy-2-phenylethyl)amino]-1 oxo-5-(8-azaspiro[4.5]decan-8-yl)-4-(3,5-dichloro-benzoylamino)-5-oxopentanoic acid]",3.0,0.05,0.05,108,5.4,
O=C(CC[C@@H](NC(=O)c1cc(Cl)cc(Cl)c1)C(=O)N1CCC2(CCCC2)CC1)N[C@H](Cc1c[nH]c2ccccc12)C(=O)O [Compound 21],4.0,0.01,0.01,940,9.4,nanomolar order of magnitude
